Tests used:
[1] = system: colon and rectal cancer cell line, SW-620; assay: Inhibitory effect on growth of cancer cell line SW-620, SRB; type: cell-based; conditions: Homo sapiens, 72 h, not having overexpressed EGFR and EGFR2
Outline: (§1)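 Cells were cultured in DMEM with 10% FBS. Compounds were applied at 10 μM with 10-fold serial dilution to 10^−4, DMSO <1%, for 72 h at 37 °C. Cells were then TCA-fixed and stained with 0.4% SRB, and absorbance was read at 570 nm after solubilisation in 10 mM Tris base.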

[2] = system: Human Umbilical Vein Endothelial Cell (HUVEC); assay: Inhibitory effect on growth of human umbilical vein endothelial cell (HUVEC), MTS; type: cell-based; conditions: Homo sapiens, 96 h, 10 ng/ml VEGF, absorbance 490 nm
[3] = system: skin cancer cell line, A431; assay: Inhibitory effect on growth of cancer cell line A431, SRB; type: cell-based; conditions: Homo sapiens, A-431, 72 h, overexpressed EGFR1 (HER-1)
Outline: as §1

EGFR1 (HER-1) = EGFR1 (HER-1) (Homo sapiens (Human), UniProt P00533); assay: EGFR1 (HER-1) enzyme assay, fluorescence polarization; type: biochemical; conditions: 100 μM ATP, poly(Glu, Tyr) substrate
VEGFR2 (KDR) = VEGFR2 (KDR) (Homo sapiens (Human), UniProt P35968); assay: VEGFR2 (KDR) enzyme assay, fluorescence polarization; type: biochemical; conditions: 5 μM ATP, poly(Glu, Tyr) substrate
Outline: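 Autophosphorylation read by fluorescence polarization: VEGFR2 (Proquinase) at 200 ng/10 μl with 5 μM ATP and 10 ng/ml poly(Glu,Tyr) 4:1, in 20 mM HEPES pH 7.4, 5 mM MgCl2, 2 mM MnCl2, 50 μM Na3VO4. Reaction 1 h at room temperature, EDTA stop, then anti-phosphotyrosine antibody/tracer for 30 min in the dark.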

[4] = system: breast cancer cell line, SK-Br3; assay: Inhibitory effect on growth of cancer cell line SK-Br3, SRB; type: cell-based; conditions: Homo sapiens, SK-BR-3, 72 h, overexpressed EGFR2 (HER-2)
Outline: as §1

Chain of EGFR1 (HER-1) (P00533 25-1210): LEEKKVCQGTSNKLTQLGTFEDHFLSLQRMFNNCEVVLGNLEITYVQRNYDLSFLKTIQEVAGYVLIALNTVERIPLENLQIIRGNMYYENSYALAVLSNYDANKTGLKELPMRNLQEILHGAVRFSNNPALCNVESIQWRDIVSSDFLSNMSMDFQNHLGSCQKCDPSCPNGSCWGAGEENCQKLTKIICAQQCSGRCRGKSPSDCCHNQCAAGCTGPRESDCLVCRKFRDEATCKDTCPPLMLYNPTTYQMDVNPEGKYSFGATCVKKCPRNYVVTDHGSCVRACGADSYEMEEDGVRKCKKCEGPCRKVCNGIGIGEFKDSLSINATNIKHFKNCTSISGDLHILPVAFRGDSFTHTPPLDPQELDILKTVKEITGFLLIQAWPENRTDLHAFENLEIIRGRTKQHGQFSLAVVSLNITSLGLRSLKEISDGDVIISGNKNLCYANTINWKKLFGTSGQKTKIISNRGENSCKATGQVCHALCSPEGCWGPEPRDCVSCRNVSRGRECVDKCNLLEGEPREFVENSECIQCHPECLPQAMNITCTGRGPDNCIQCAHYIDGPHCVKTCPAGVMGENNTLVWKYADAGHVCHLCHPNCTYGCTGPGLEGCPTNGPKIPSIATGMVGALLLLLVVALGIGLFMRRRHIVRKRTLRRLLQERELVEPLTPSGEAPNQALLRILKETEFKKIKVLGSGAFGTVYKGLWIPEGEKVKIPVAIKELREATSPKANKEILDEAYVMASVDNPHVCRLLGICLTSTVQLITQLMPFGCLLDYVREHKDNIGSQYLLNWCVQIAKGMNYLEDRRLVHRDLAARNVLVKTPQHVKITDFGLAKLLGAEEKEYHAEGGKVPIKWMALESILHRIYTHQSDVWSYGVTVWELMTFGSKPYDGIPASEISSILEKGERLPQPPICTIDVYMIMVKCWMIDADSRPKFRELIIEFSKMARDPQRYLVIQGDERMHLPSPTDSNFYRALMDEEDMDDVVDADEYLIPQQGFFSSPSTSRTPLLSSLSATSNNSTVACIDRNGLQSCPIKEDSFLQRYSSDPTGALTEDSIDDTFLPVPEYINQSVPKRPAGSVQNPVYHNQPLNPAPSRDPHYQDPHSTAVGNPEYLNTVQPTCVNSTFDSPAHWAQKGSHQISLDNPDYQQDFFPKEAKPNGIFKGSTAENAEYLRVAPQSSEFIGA
Chain of VEGFR2 (KDR) (P35968 20-1356): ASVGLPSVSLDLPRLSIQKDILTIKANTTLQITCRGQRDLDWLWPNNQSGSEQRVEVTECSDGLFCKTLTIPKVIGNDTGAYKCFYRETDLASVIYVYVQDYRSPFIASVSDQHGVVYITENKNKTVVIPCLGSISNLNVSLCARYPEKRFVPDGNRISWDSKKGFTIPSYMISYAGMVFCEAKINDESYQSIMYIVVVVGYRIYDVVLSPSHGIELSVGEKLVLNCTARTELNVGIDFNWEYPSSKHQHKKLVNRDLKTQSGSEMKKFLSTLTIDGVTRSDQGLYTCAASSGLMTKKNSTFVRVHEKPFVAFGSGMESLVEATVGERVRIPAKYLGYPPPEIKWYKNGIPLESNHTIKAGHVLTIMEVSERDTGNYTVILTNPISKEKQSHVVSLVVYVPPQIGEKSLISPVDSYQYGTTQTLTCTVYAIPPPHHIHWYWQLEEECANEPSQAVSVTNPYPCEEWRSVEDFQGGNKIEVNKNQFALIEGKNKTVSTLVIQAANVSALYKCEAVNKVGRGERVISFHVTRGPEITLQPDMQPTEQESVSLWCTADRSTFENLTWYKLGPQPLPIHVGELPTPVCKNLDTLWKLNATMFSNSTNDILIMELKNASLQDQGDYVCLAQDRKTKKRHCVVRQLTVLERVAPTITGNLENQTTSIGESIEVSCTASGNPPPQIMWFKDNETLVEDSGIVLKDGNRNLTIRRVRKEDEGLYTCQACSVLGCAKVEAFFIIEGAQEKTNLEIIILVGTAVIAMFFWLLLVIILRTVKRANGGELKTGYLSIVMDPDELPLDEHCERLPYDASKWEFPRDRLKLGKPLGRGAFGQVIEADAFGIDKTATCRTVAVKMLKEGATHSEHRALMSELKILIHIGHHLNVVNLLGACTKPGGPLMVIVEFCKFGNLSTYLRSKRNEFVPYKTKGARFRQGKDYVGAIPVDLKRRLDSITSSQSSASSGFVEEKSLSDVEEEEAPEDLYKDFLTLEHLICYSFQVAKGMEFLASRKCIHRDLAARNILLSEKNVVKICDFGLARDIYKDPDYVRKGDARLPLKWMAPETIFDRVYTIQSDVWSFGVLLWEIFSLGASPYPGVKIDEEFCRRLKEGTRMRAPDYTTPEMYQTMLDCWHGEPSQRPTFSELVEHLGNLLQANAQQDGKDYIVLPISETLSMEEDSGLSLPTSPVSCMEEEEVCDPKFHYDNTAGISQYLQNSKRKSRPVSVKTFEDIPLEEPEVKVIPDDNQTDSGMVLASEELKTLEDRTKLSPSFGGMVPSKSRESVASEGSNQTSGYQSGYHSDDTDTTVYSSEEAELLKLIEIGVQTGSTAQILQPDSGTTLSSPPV

| SMILES | IC50 [1] [nM] | IC50 [2] [nM] | IC50 [3] [nM] | IC50 (EGFR1 (HER-1)) [nM] | IC50 (VEGFR2 (KDR)) [nM] | IC50 [4] [nM] |
| --- | --- | --- | --- | --- | --- | --- |
| C=CC(=O)Nc1cc2c(Nc3ccc(Br)cc3F)ncnc2cc1OCCNC(=O)CN1CCCC1 [Example 107, N-{4-(4-bromo-2-fluoro-phenylamino)-7-[2-(2-pyrrolidin-1-yl-acetylamino)-ethoxy]-quinazolin-6-yl}-acrylamide] | 3590 | 289 | 48 | 45 | 200 | 119 |
| C=CC(=O)Nc1cc2c(Nc3ccc(Br)cc3F)ncnc2cc1OCCNC(=O)CN1CC=CC1 [Example 108, N-{4-(4-bromo-2-fluoro-phenylamino)-7-[2-(2-2,5-dihydro-pyrrol-1-yl-acetylamino)-ethoxy]-quinazolin-6-yl}-acrylamide] | 2950 | 497 | 41 | 32 | 486 | 103 |
| C=CC(=O)Nc1cc2c(Nc3ccc(Br)cc3F)ncnc2cc1OCC1=NCCO1 [Example 109, N-[4-(4-bromo-2-fluoro-phenylamino)-7-(4,5-dihydro-oxazol-2-ylmethoxy)-quinazolin-6-yl]-acrylamide] | 10000 | 486 | 147 | 125 | 478 | 572 |
| C=CC(=O)Nc1cc2c(Nc3ccc(Br)cc3F)ncnc2cc1OCCNC(=O)CN1CCC1 [Example 110, N-[7-[2-(2-azetidin-1-yl-acetylamino)-ethoxy]-4-(4-bromo-2-fluoro-phenylamino)-quinazolin-6-yl]-acrylamide] | 4590 | 956 | 1020 | 987 | 951 | 1360 |
| C=CC(=O)Nc1cc2c(Nc3ccc(Cl)cc3Cl)ncnc2cc1OCCNC(C)=O [Example 113, N-[7-(2-acetylamino-ethoxy)-4-(4-chloro-2-chloro-phenylamino)-quinazolin-6-yl]-acrylamide] | 2200 | 369 | 58 | 49 | 268 | 289 |
| C=CC(=O)Nc1cc2c(Nc3ccc(Br)cc3Cl)ncnc2cc1OCCNC(C)=O [Example 115, N-[7-(2-acetylamino-ethoxy)-4-(4-bromo-2-chloro-phenylamino)-quinazolin-6-yl]-acrylamide] | 10000 | 934 | 45 | 42 | 854 | 897 |
| C=CC(=O)Nc1cc2c(Nc3ccc(Cl)cc3F)ncnc2cc1OCCNC(=O)CN(C)C [Example 116, N-{4-(4-chloro-2-fluoro-phenylamino)-7-[2-(2-dimethylamino-acetylamino)-ethoxy]-quinazolin-6-yl}-acrylamide] | 2960 | 951 | 437 | 419 | 758 | 253 |
| C=CC(=O)Nc1cc2c(Nc3cccc(Cl)c3F)ncnc2cc1OCCNC(=O)CN(C)C [Example 117, N-[4-(3-chloro-2-fluoro-phenylamino)-7-{2-[2-(dimethylamino)-acetamido]-ethoxy}quinazolin-6-yl]-acrylamide] | 10000 | 998 | 1240 | 924 | 945 | 1260 |
| C=CC(=O)Nc1cc2c(Nc3ccc(F)c(F)c3F)ncnc2cc1OCCNC(C)=O [Example 118, N-[7-(2-acetylamino-ethoxy)-4-(2,3,4-trifluoro-phenylamino)-quinazolin-6-yl]-acrylamide] | 725 | 681 | 15 | 14 | 489 | 79 |
| C=CC(=O)Nc1cc2c(Nc3cc(F)c(Br)cc3F)ncnc2cc1OCCNC(C)=O [Example 119, N-[7-(2-acetylamino-ethoxy)-4-(4-bromo-2,5-difluoro-phenylamino)-quinazolin-6-yl]-acrylamide] | 2890 | 921 | 14 | 12 | 782 | 178 |
| C=CC(=O)Nc1cc2c(Nc3cc(Cl)c(Cl)cc3F)ncnc2cc1OCCNC(C)=O [Example 121, N-[7-(2-acetylamino-ethoxy)-4-(4,5-dichloro-2-fluoro-phenylamino)-quinazolin-6-yl]-acrylamide] | 10000 | 383 | 7 | 5 | 153 | 22 |
| C=CC(=O)Nc1cc2c(Nc3cc(Cl)c(Cl)cc3Cl)ncnc2cc1OCCNC(C)=O [Example 122, N-[7-(2-acetylamino-ethoxy)-4-(2,4,5-trichloro-phenylamino)-quinazolin-6-yl]-acrylamide] | 2320 | 913 | 1030 | 876 | 789 | 1020 |
| C=CC(=O)Nc1cc2c(Nc3c(F)cc(Br)cc3F)ncnc2cc1OCCNC(=O)CN(C)C [Example 123, N-[4-(4-bromo-2,6-difluorophenylamino)-7-{2-[2-(dimethylamino)-acetamido]-ethoxy}-quinazolin-6-yl]-acrylamide] | 10000 | 328 | 181 | 175 | 268 | 126 |
| C=CC(=O)Nc1cc2c(Nc3ccc(Br)c(F)c3F)ncnc2cc1OCCNC(=O)CN(C)C [Example 124, N-{4-(4-bromo-2,3-difluoro-phenylamino)-7-[2-(2-dimethylamino-acetylamino)-ethoxy]-quinazolin-6-yl}-acrylamide] | 2680 | 268 | 19 | 18 | 136 | 60 |
| C=CC(=O)Nc1cc2c(Nc3ccc(Br)c(F)c3F)ncnc2cc1OCCNC(=O)CCN(CC)CC [Example 125, N-{4-(4-bromo-2,3-difluoro-phenylamino)-7-[2-(3-diethylamino-propionylamino)-ethoxy]-quinazolin-6-yl}-acrylamide] | 2980 | 657 | 22 | 19 | 218 | 242 |
| C=CC(=O)Nc1cc2c(Nc3ccc(Br)c(F)c3F)ncnc2cc1OCCNC(=O)CCN1CCCCC1 [Example 126, N-{4-(4-bromo-2,3-difluoro-phenylamino)-7-[2-(3-piperidin-1-yl-propionylamino)-ethoxy]-quinazolin-6-yl}-acrylamide] | 7530 | 286 | 1250 | 894 | 140 | 1370 |
| C=CC(=O)Nc1cc2c(Nc3ccc(Cl)nc3)ncnc2cc1OCCNC(C)=O [Example 128, N-[7-(2-acetylamino-ethoxy)-4-(6-chloro-pyridin-3-ylamino)-quinazolin-6-yl]-acrylamide] | 10000 | 945 | 68 | 65 | 823 | 95 |
| C=CC(=O)Nc1cc2c(Nc3cc(OC)c(Cl)cc3F)ncnc2cc1OCCNC(C)=O [Example 129, N-[7-(2-acetylamino-ethoxy)-4-(4-chloro-2-fluoro-5-methoxy-phenylamino)-quinazolin-6-yl]-acrylamide] | 721 | 350 | 82 | 80 | 357 | 106 |
